In ChEMBL document CHEMBL5725428, “15-aryl prostaglandins as EP4 agonists, and methods of use thereof” (2017):

Tests used:
[1] = target: Prostaglandin E2 receptor EP4 subtype (Homo sapiens, UniProt P35408); experiment: (§1) cAMP Assay: A 384-well drug plate was prepared to contain 6 test compounds, PGE2 and cAMP in 16 serial dilutions in triplicate, using a Biomek station. HEK-EBNA cells expressing a target PG receptor subtype (EP2 or EP4) were suspended in a stimulation buffer (HBSS, 0.1% BSA, 0.5 mM IBMX and 5 mM HEPES, pH 7.4) in a density of 10^4 cells/5 microliters. The reaction was initiated by mixing 5 microliters drug dilutions with 5 microliters of HEK-EBNA cells in a well, carried out for 30 min at room temperature, and followed by the addition of 5 microliters anti-cAMP acceptor beads in the control buffer with Tween-20 (25 mM NaCl, 0.03% Tween-20, 5 mM HEPES, pH 7.4). After 30 min in the dark at room temperature, the mixtures were incubated with 15 microliters biotinylated-cAMP/streptavidin donor beads in Lysis/Detection buffer (0.1% BSA, 0.3% Tween-20 and 5 mM HEPES, pH 7.4) for 45 min at room temperature. Fluorescence changes were read using a Fusion-alpha microplate reader.; type: cell-based
Chain of Prostaglandin E2 receptor EP4 subtype (P35408 whole entry): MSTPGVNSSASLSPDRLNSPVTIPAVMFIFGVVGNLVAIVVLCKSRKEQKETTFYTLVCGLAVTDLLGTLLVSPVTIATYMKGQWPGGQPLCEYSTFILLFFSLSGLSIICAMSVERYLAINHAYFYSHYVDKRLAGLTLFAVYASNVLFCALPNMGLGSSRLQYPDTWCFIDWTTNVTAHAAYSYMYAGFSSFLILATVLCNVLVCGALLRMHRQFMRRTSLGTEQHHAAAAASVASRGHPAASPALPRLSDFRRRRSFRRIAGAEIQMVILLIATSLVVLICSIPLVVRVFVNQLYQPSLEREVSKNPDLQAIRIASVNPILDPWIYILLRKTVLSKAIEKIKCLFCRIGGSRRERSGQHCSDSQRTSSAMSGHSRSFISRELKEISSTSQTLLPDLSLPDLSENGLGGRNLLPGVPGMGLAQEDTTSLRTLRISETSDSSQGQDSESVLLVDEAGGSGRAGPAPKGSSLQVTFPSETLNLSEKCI

[2] = target: Prostaglandin E2 receptor EP2 subtype (Homo sapiens, UniProt P43116); experiment: as §1; type: cell-based
Chain of Prostaglandin E2 receptor EP2 subtype (P43116 whole entry): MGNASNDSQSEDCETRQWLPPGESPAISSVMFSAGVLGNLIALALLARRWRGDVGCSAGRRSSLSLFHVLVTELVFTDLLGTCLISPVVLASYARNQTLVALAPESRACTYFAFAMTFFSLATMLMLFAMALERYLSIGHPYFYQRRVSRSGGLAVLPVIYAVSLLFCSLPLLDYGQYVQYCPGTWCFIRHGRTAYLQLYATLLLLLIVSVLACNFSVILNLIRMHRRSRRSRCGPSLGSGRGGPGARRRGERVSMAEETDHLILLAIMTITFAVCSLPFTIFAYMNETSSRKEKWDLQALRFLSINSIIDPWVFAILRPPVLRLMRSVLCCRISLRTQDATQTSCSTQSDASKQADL

## Cc1cc(Cl)ccc1-c1cc(C(O)/C=C/[C@H]2CCC(=O)N2CCCc2ccc(C(=O)O)cc2)ccc1F (single isomer, unassigned)
[1]
  Ki: 1.08 µM
[2]
  Ki: 7.49 µM
